Biological target: T1, α-7 nicotinic acetylcholine receptor channel expressed in HEK 293 cells (Rattus norvegicus, UniProt Q05941)
T1 construct: expressed in transfected cells
Assay: Ca2+-sensitive fluorescence-based FLIPR assay, α7 nicotinic ACh receptor channel function (agonist)
Assay type: cell-based
Settings: Table 1, HEK 293 cells, agonist Ca2+ flux
Description: I) α7 Nicotinic Acetycholine Receptor Binding. Membranes were prepared for binding using HEK293 cells stably expressing the rat α7 nicotinic acetycholine receptor (rat α7 nAChR). Cells were homogenized at 4° C. in hypotonic lysis buffer consisting of 10 mM Tris (pH 7.4), 5 mM EDTA and protease inhibitors and centrifuged at 32000×g for 20 minutes. The pellet was washed once in membrane wash buffer consisting of 50 mM Tris (pH 7.4), 1 mM EDTA and protease inhibitors and centrifuged at 32000×g for 20 minutes. This pellet was then resuspended in assay buffer consisting 50 mM KH2PO4 (pH 7.4 at 25° C.), 1 mM EDTA, 0.005% Triton-X 100 and 0.1% (v/v) Sigma Protease Inhibitor Cocktail. Aliquots were then frozen in dry ice/ethanol and kept at −80° C. until the day of the assay. II) A Ca^2+-Sensitive, Fluorescence-Based Assay α-7 for Nicotinic Acetylcholine Receptor Channel Function In Mammalian Cells (“FLIPR”). Summary: Lead compounds are evaluated for agonist activity at […], α3β4, […], and α1β1δ1ε sub-types of nicotinic ACh receptor ion channels expressed in mammalian HEK 293 cells. Agonist potency and efficacy values are determined from kinetic fluorescence Ca^2+ influx measurements made using a 384 well FLIPR (Fluorescence Image Plate Reader). […] In this assay, channel expressing HEK cell lines seeded in 384 well assay plates are loaded with a membrane permeant fluorescent Ca^2+ indicator dye, whose 510 nm green emission signal increases in response to elevation of intracellular Ca^2+ concentration. The basal fluorescence from the cells is monitored in real time, followed by the acute addition of test compounds.
Materials and Methods: Reagents: The acetomethoxy (AM) ester of the Ca^2+ indicator dye Fluo-4 was obtained from InVitrogen, (Carlsbad, Calif.). Acetylcholine and all buffer constituents were purchased from Sigma Chemical Company, St. Louis, Mo. G418 and Minimal Essential Medium were purchased from InVitrogen Life Technologies, Carlsbad, Calif. Fetal bovine serum was purchased from (InVitrogen, Carlsbad, Calif.).
Cell Culture: HEK-293 cells were grown in Minimal Essential Medium containing 10% (v/v) fetal bovine serum at 37° C. in a 5% CO2 incubator. HEK-293 cells stably expressing the ion channels were grown in the same medium with the addition of 500 μg/ml G418.
Ca^2+ flux assays of Ca^2+ channels expressed in HEK-293 cells: HEK-293 cells expressing the ion channels of interest were plated in 384 well, black-walled, clear-bottomed, poly-D-lysine coated plates at a density of ˜20,000 cells/well in 20 μl of Minimal Essential Medium containing 10% (v/v) fetal bovine serum and incubated for 2 days at 29° C. in a 5% CO2 incubator. Prior to assay, cells were loaded with the Fluo-4 AM ester. […] Dye loading was allowed to proceed for 90 minutes at room temperature at which time the dye loading solution was removed and replaced with 40 μl/well of Hanks buffer. Cells loaded with dye were loaded onto a FLIPR384 (Molecular Devices, Sunnyvale, Calif.). Fluo-4 dye was excited using the 488 nm line of an argon laser. Emission was filtered using a 540+/−30 nm bandpass filter. For evaluation of the effects of test compounds using the Ca^2+ flux assay, compounds to be tested were provided in assay ready plates. For nicotinic receptor ion channel expressing cells, the assay was initiated by the addition of 20 μl/well of Hanks buffer containing test compounds. For all assays, data were collected at 1 Hz for 10 seconds (baseline), at which time the compound containing stimulus buffers are added, and further measurements collected at 0.33 Hz for 3 min.
Data Analysis: The statistical robustness of the nicotinic receptor Ca^2+ flux assays is determined from blanks and totals wells. […] The raw fluorescence units data files generated on the FLIPR plate reader are automatically exported and processed by in-house data analysis tools.

[1] = FLIPR α7 activity rating (EC50, nM)

T1 sequence (Q05941 23-502): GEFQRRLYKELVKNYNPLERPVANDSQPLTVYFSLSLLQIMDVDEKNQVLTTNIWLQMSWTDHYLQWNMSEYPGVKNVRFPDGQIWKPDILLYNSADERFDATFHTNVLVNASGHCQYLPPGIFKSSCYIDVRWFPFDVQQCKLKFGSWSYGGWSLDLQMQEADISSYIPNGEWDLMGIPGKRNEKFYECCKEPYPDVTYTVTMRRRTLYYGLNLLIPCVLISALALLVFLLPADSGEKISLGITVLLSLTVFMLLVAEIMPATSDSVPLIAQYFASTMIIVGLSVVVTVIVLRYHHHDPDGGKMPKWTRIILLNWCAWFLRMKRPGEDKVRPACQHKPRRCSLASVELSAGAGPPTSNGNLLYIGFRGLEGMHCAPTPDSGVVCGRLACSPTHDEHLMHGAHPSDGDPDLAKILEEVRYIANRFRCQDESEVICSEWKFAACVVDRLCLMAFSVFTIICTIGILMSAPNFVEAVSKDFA

c1cnc2ccc(NC3=NCC4(CN5CCC4CC5)O3)cc2c1 (stereo not shown) [Example 85]
EC50 [1]: 1000 to 100000 nM

O=C1Cc2cc(NC3=NCC4(CN5CCC4CC5)O3)ccc2N1 (stereo not shown) [Example 86]
EC50 [1]: 1000 to 100000 nM

c1ccn2nc(NC3=NCC4(CN5CCC4CC5)O3)nc2c1 (stereo not shown) [Example 87]
EC50 [1]: < 100 nM

c1ccc(-c2csc(NC3=NCC4(CN5CCC4CC5)O3)n2)nc1 (stereo not shown) [Example 88]
EC50 [1]: 100 to 1000 nM

Cc1cc(C)c2nc(NC3=NCC4(CN5CCC4CC5)O3)sc2c1 (stereo not shown) [Example 89]
EC50 [1]: < 100 nM

CC(=O)Nc1ccc2nc(NC3=NCC4(CN5CCC4CC5)O3)sc2c1 (stereo not shown) [Example 90]
EC50 (FLIPR α7 (EC50, nM)): 130 nM | EC50 [1]: 100 to 1000 nM

CCc1ccc2nc(NC3=NCC4(CN5CCC4CC5)O3)sc2c1 (stereo not shown) [Example 91]
EC50 [1]: 100 to 1000 nM

Cc1cnc(NC2=NCC3(CN4CCC3CC4)O2)s1 (stereo not shown) [Example 92]
EC50 [1]: < 100 nM

Cc1ccn2nc(NC3=NCC4(CN5CCC4CC5)O3)nc2c1 (stereo not shown) [Example 94]
EC50 [1]: < 100 nM

Cn1c(-c2ccccc2)cnc1NC1=NCC2(CN3CCC2CC3)O1 (stereo not shown) [Example 96]
EC50 [1]: 1000 to 100000 nM

Cc1cccn2nc(NC3=NCC4(CN5CCC4CC5)O3)nc12 (stereo not shown) [Example 97]
EC50 [1]: 100 to 1000 nM

Cc1nc(NC2=NCC3(CN4CCC3CC4)O2)sc1C(=O)N(C)C (stereo not shown) [Example 98]
EC50 [1]: 1000 to 100000 nM

Cc1ccc(C)c2sc(NC3=NCC4(CN5CCC4CC5)O3)nc12 (stereo not shown) [Example 102]
EC50 [1]: < 100 nM

Cc1cc(Cl)c2nc(NC3=NCC4(CN5CCC4CC5)O3)sc2c1 (stereo not shown) [Example 103]
EC50 (FLIPR α7 (EC50, nM)): 280 nM | EC50 [1]: 100 to 1000 nM

FC(F)Oc1ccc2nc(NC3=NCC4(CN5CCC4CC5)O3)sc2c1 (stereo not shown) [Example 104]
EC50 [1]: 100 to 1000 nM

c1ccc(Cc2cnc(NC3=NCC4(CN5CCC4CC5)O3)s2)cc1 (stereo not shown) [Example 105]
EC50 [1]: 100 to 1000 nM

Brc1cnc(NC2=NCC3(CN4CCC3CC4)O2)cn1 (stereo not shown) [Example 107]
EC50 [1]: 100 to 1000 nM

Cc1csc(NC2=NCC3(CN4CCC3CC4)O2)n1 (stereo not shown) [Example 109]
EC50 [1]: 100 to 1000 nM

CC(C)(C)c1csc(NC2=NCC3(CN4CCC3CC4)O2)n1 (stereo not shown) [Example 110]
EC50 (FLIPR α7 (EC50, nM)): 450 nM | EC50 [1]: 100 to 1000 nM

COc1ccc(C)c2nc(NC3=NCC4(CN5CCC4CC5)O3)sc12 (stereo not shown) [Example 112]
EC50 [1]: < 100 nM

c1ccc2c(NC3=NCC4(CN5CCC4CC5)O3)n[nH]c2c1 (stereo not shown) [Example 113]
EC50 [1]: < 100 nM

COc1ccn2nc(NC3=NC[C@@]4(CN5CCC4CC5)O3)nc2c1 [Example 125]
EC50 (FLIPR α7 (EC50, nM)): 17 nM | EC50 [1]: < 100 nM

Clc1cncc(NC2=NC[C@@]3(CN4CCC3CC4)O2)n1 [Example 127]
EC50 [1]: 1000 to 100000 nM

COc1ccc(-c2nc(NC3=NC[C@@]4(CN5CCC4CC5)O3)sc2C)cc1 [Example 129]
EC50 [1]: 100 to 1000 nM

COc1nc(Br)cnc1NC1=NC[C@@]2(CN3CCC2CC3)O1 [Example 130]
EC50 [1]: 100 to 1000 nM

Clc1cccc2[nH]nc(NC3=NC[C@@]4(CN5CCC4CC5)O3)c12 [Example 132]
EC50 [1]: 100 to 1000 nM

Brc1ccc2c(NC3=NC[C@@]4(CN5CCC4CC5)O3)n[nH]c2c1 [Example 133]
EC50 [1]: < 100 nM

Clc1ccc2c(NC3=NC[C@@]4(CN5CCC4CC5)O3)n[nH]c2c1 [Example 134]
EC50 [1]: < 100 nM

COc1ccc2c(NC3=NC[C@@]4(CN5CCC4CC5)O3)n[nH]c2c1 [Example 135]
EC50 [1]: < 100 nM

Brc1cnc(NC2=NC[C@@]3(CN4CCC3CC4)O2)cn1 [Example 136]
EC50 [1]: < 100 nM

c1cncc(-c2ncc(NC3=NC[C@@]4(CN5CCC4CC5)O3)cn2)c1 [Example 138]
EC50 [1]: 1000 to 100000 nM

c1ccc2nc(NC3=NC[C@@]4(CN5CCC4CC5)O3)ccc2c1 [Example 139]
EC50 (FLIPR α7 (EC50, nM)): 16 nM | EC50 [1]: < 100 nM

Reference: patent US8309577B2, “Quinuclidine compounds as α-7 nicotinic acetylcholine receptor ligands” (Bristol-Myers Squibb Company, priority 2008, dated 2012)
